Laboratory results as given in patent US10590106B2, “Certain chemical entities, compositions, and methods” (NeuPharma, Inc., priority 2012, dated 2020).

Key:
A375 cells = assay: Inhibition of cancer cell growth, MTT or MTS assay, A375; type: cell-based; conditions: Homo sapiens, A-375; 72 h incubation
Description: (§1) Inhibition of cell growth by compounds was measured using MTT or MTS assay. Tumor cell lines were purchased from ATCC (American Type Culture Collection, Manassas, Va.). All cell lines were maintained in RPMI 1640 (Hyclone) supplemented with 10% fetal bovine serum (FBS, Hyclone), glutamine (2 mM, Hyclone), and antibiotics (penicillin 100 U/mL and streptomycin 50 μg/mL) at 37° C. in a humidified atmosphere of 5% CO2 in air. Taxol (as a positive control, Sigma) and compounds were dissolved in DMSO (Sigma), and the final concentration of DMSO in the medium was 1%. Tumor cells were plated in 96-well plates at densities of about 2000 (A375) or 4000 (A549 and Colo205) cells/well of a 96-well plate and allowed to adhere/grow for 24 h. They were then treated with various concentrations of drug and incubated for 72 h. For MTT method, medium was then removed by inverting and tapping the plates. 100 μL of MTT (0.5 mg/ml) was added to each well followed by an incubated at 37° C. for 4 h. MTT was then removed and 200 μL of DMSO was added to each well, and the ODs at 570 nm were measured after a 5 second shaking cycle in a 96-well spectrophotometer. For MTS method, 20 μL MTS (CellTiter 96 Aqueous One Solution, Promega) was added to each well followed by an incubated at 37° C. for 2-4 h, solutions were then directly put in a 96-well spectrophotometer, and the ODs at 490 nm were measured.
(§2) All concentrations of compounds were tested in triplicate and controls were averaged over 4 wells. IC50 was calculated by plotting the concentration of compound vs the percentage of inhibition in treated wells using GraphPad Prism 5. […] The scale utilized in Tables […] is as follows: +++ less than 1000 nM; ++ between 1000 nM and 5000 nM; and + greater than 5000 nM. The scale utilized in Table 8 is as follows: +++ less than 2000 nM; ++ between 2000 nM and 5000 nM; and + greater than 5000 nM.

BRAF V600E = BRAF V600E (Homo sapiens (Human), UniProt P15056, V600E); assay: Inhibitory activity against kinase BRAF V600E, Z'-LYTE method (Invitrogen); type: biochemical; conditions: for inhibition at 1 µM: 1 μM compound, read-out: Inhibition (% inhibition at 1 μM) against BRAF V600E
Description: Inhibitory activities Inhibitory activities of compounds against BRAF, and BRAF V600E were measured by Invitrogen using Z′-LYTE® Method as briefly described in the following. 4× Test compounds are dissolved in 1% DMSO. […] ATP solutions are diluted to a 4×ATP working concentration in Kinase Buffer (50 mM HEPES pH 7.5, 0.01% BRIJ-35, 10 mM MgCl2, 1 mM EGTA). Reaction started by 30-second shaking of mixture consisting of 2.5 μL 4× test compound, […] and 2.5 μL 4×ATP Solution on Bar-coded Corning, low volume NBS, black 384-well plate (Corning Cat. #3676). Then the mixture was incubated for 60-minute at room temperature for the kinase reaction, followed by addition of 5 μL of a 1:1024 dilution of development reagent A and 30-second plate shake. The mixture was then incubated for another 60-minute at room temperature for development reaction. Fluorescence was read by plate reader. IC50 was calculated by plotting the concentration of compound vs the percentage of inhibition in treated wells using GraphPad Prism 5.
Table 2 and 3 show % inhibition at 1 μM of several compounds of the invention against BRAF and BRAF V600E, respectively, using Z′-LYTE® method.
The scale utilized in Table 4 is as follows: +++ less than 100 nM; and ++ greater than 100 nM.

KDR (VEGFR2) = KDR (VEGFR2) (Homo sapiens (Human), UniProt P35968); assay: Inhibitory activity against kinase KDR, Z'-LYTE method (Invitrogen); type: biochemical; conditions: for inhibition at 1 µM: 1 μM compound, read-out: Inhibition (% inhibition at 1 μM) against KDR
Description: Inhibitory activities of compounds against KDR (VEGFR2) were also measured by Invitrogen using Z′-LYTE® Method as described above with the following modification. The 2× KDR (VEGFR2)/Tyr 01 mixture is prepared in 50 mM HEPES pH 7.5, 0.01% BRIJ-35, 10 mM MgCl2, 1 mM EGTA. The final 10 μL Kinase Reaction consists of 0.5-11.7 ng KDR (VEGFR2) and 2 μM Tyr 01 in 50 mM HEPES pH 7.5, 0.01% BRIJ-35, 10 mM MgCl2, 1 mM EGTA. After the 1 hour Kinase Reaction incubation, 5 μL of a 1:256 dilution of Development Reagent B is added.
The scale utilized in Table 5 is as follows: +++ less than 100 nM; and ++ greater than 100 nM

A549 cells = assay: Inhibition of cancer cell growth, MTT or MTS assay, A549; type: cell-based; conditions: Homo sapiens, 72 h incubation
Description: as §1, §2

Sequence of BRAF V600E (P15056 whole entry V600E): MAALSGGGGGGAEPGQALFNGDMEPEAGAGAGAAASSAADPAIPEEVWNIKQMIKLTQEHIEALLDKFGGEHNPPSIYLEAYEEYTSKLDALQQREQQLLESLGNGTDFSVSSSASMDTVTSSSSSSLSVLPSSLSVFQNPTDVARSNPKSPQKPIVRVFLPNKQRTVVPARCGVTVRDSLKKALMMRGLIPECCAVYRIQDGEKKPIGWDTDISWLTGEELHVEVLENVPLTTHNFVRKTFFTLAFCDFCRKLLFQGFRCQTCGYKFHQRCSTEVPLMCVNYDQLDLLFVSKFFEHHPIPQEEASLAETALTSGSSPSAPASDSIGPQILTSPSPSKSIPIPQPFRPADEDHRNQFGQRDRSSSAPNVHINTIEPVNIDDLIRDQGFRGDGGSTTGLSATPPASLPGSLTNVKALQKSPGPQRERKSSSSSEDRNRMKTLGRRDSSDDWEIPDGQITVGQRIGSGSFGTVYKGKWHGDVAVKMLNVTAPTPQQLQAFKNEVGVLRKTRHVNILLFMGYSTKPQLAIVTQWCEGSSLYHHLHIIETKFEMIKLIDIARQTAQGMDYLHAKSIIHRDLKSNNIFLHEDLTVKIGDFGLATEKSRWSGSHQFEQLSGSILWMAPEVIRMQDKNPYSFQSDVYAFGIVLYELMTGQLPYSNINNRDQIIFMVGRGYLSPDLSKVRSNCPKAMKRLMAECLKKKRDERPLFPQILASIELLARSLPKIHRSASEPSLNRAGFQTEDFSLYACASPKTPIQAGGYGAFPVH
Sequence of KDR (VEGFR2) (P35968 20-1356): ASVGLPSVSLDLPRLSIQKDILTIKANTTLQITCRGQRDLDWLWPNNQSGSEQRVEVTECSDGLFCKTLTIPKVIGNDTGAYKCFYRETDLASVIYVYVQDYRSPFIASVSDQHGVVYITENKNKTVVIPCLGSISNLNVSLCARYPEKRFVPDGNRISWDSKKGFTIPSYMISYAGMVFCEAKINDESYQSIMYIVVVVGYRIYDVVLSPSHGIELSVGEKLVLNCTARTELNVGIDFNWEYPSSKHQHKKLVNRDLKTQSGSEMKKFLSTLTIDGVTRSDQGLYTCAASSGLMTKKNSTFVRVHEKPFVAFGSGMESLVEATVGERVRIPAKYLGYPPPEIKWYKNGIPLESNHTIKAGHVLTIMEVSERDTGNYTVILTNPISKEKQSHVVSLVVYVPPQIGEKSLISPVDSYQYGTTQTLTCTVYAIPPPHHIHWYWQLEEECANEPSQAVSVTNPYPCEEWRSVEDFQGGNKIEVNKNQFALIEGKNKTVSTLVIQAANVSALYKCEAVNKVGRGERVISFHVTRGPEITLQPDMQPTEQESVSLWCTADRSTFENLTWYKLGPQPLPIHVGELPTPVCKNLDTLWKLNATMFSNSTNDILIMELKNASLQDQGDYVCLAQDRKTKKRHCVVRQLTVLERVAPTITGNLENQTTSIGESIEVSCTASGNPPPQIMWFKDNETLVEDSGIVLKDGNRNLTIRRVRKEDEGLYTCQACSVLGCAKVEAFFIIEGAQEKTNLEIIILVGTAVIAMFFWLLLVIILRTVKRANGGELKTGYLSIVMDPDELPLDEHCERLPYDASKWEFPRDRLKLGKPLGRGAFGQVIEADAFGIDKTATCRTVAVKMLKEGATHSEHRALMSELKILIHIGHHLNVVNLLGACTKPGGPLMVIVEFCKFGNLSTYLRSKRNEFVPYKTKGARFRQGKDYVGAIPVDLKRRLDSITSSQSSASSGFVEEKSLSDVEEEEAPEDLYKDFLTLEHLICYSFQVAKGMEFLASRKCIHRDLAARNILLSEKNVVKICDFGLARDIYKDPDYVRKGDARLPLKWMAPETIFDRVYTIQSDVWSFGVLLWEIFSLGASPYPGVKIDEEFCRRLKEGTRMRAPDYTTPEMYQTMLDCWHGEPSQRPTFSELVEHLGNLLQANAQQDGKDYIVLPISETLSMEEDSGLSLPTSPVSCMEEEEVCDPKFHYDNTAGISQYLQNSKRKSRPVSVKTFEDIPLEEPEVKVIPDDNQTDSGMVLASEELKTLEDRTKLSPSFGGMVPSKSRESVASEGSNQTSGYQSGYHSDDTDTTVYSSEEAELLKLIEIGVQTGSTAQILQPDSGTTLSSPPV

SMILES	IC50 (A375 cells) [µM]	inhibition at 1 µM (BRAF V600E) [%]	inhibition at 1 µM (KDR (VEGFR2)) [%]	IC50 (A549 cells) [µM]	IC50 (BRAF V600E) [µM]	IC50 (KDR (VEGFR2)) [µM]
O=C(Nc1cccc(Oc2ccc3nccnc3c2)c1)c1cccc(F)c1 [Compound C004, 3-fluoro-N-(3-(quinoxalin-6-yloxy)phenyl)benzamide]	> 5	70 to 89	< 70	–	–	–
CCCS(=O)(=O)Nc1cccc(Oc2ccc3nccnc3c2)c1 [Compound C007, N-(3-(quinoxalin-6-yloxy)phenyl)propane-1-sulfonamide]	> 5	–	–	> 5	–	–
O=C(Nc1ccc(F)c(Oc2ccc3ncc(N4CCOCC4)nc3c2)c1)c1ccc(Cl)c(C(F)(F)F)c1 [Compound C008, 4-chloro-N-(4-fluoro-3-((3-morpholinoquinoxalin-6-yl)oxy)phenyl)-3-(trifluoromethyl)benzamide]	1 to 5	–	–	2 to 5	–	–
CCCS(=O)(=O)Nc1ccc(F)c(Oc2ccc3ncc(N4CCOCC4)nc3c2)c1 [Compound C012, N-(4-fluoro-3-((3-morpholinoquinoxalin-6-yl)oxy)phenyl)propane-1-sulfonamide]	> 5	–	–	> 5	–	–
O=C(Nc1ccc(F)c(Oc2ccc3nccnc3c2)c1)c1cccc(F)c1 [Compound C017, 3-fluoro-N-(4-fluoro-3-(quinoxalin-6-yloxy)phenyl)benzamide]	> 5	70 to 89	–	–	–	–
CCCS(=O)(=O)Nc1cc(F)cc(Oc2ccc3nccnc3c2)c1 [Compound C019, N-(3-fluoro-5-(quinoxalin-6-yloxy)phenyl)propane-1-sulfonamide]	1 to 5	< 70	–	–	–	–
CCCS(=O)(=O)Nc1cc(F)cc(Oc2ccc3ncc(N4CCOCC4)nc3c2)c1 [Compound C030, N-(3-fluoro-5-((3-morpholinoquinoxalin-6-yl)oxy)phenyl)propane-1-sulfonamide]	> 5	–	–	–	–	–
O=C(Nc1cccc(F)c1)Nc1cccc(Oc2ccc3ncc(N4CCNCC4)nc3c2)c1 [Compound C037, 1-(3-fluorophenyl)-3-(3-((3-(piperazin-1-yl)quinoxalin-6-yl)oxy)phenyl)urea]	–	> 89	70 to 89	> 5	–	–
O=C(Nc1cccc(F)c1)Nc1cccc(Oc2ccc3ncc(N4CCOCC4)nc3c2)c1 [Compound C042, 1-(3-fluorophenyl)-3-(3-((3-morpholinoquinoxalin-6-yl)oxy)phenyl)urea]	–	> 89	70 to 89	> 5	–	–
O=C(Nc1cc(F)cc(F)c1)Nc1cccc(Oc2ccc3ncc(N4CCOCC4)nc3c2)c1 [Compound C045, 1-(3,5-difluorophenyl)-3-(3-((3-morpholinoquinoxalin-6-yl)oxy)phenyl)urea]	–	70 to 89	< 70	> 5	–	–
O=C(Nc1ccc(F)cc1)Nc1ccc(F)c(Oc2ccc3ncc(N4CCOCC4)nc3c2)c1 [Compound C053, 1-(4-fluoro-3-((3-morpholinoquinoxalin-6-yl)oxy)phenyl)-3-(4-fluorophenyl)urea]	1 to 5	> 89	70 to 89	–	–	–
O=C(Nc1cccc(Cl)c1)Nc1ccc(F)c(Oc2ccc3ncc(N4CCOCC4)nc3c2)c1 [Compound C055, 1-(3-chlorophenyl)-3-(4-fluoro-3-((3-morpholinoquinoxalin-6-yl)oxy)phenyl)urea]	–	> 89	70 to 89	> 5	–	–
O=C(Nc1ccc(F)c(Cl)c1)Nc1ccc(F)c(Oc2ccc3ncc(N4CCOCC4)nc3c2)c1 [Compound C056, 1-(3-chloro-4-fluorophenyl)-3-(4-fluoro-3-((3-morpholinoquinoxalin-6-yl)oxy)phenyl)urea]	–	> 89	70 to 89	> 5	–	–
O=C(Nc1ccc(Cl)cc1)Nc1ccc(F)c(Oc2ccc3ncc(N4CCOCC4)nc3c2)c1 [Compound C057, 1-(4-chlorophenyl)-3-(4-fluoro-3-((3-morpholinoquinoxalin-6-yl)oxy)phenyl)urea]	–	> 89	70 to 89	–	–	–
O=C(Nc1ccc(Cl)c(F)c1)Nc1ccc(F)c(Oc2ccc3ncc(N4CCOCC4)nc3c2)c1 [Compound C058, 1-(4-chloro-3-fluorophenyl)-3-(4-fluoro-3-((3-morpholinoquinoxalin-6-yl)oxy)phenyl)urea]	–	> 89	70 to 89	2 to 5	–	–
COc1ccc(NC(=O)Nc2cccc(Oc3ccc4nccnc4c3)c2)cc1 [Compound C069, 1-(4-methoxyphenyl)-3-(3-(quinoxalin-6-yloxy)phenyl)urea]	–	–	–	–	< 0.1	< 0.1
CCCNC(=O)Nc1cccc(Oc2ccc3nccnc3c2)c1 [Compound C071, 1-propyl-3-(3-(quinoxalin-6-yloxy)phenyl)urea]	> 5	< 70	< 70	–	–	–
O=C(Nc1cccc(Oc2ccc3nccnc3c2)c1)NC1CC1 [Compound C072, 1-cyclopropyl-3-(3-(quinoxalin-6-yloxy)phenyl)urea]	> 5	–	–	–	–	–
O=C(Nc1ccc(Oc2ccc3nccnc3c2)cc1)c1cccc(C(F)(F)F)c1 [Compound C078, N-(4-(quinoxalin-6-yloxy)phenyl)-3-(trifluoromethyl)benzamide]	> 5	70 to 89	–	–	–	–
O=C(Nc1ccc(Oc2ccc3ncc(N4CCOCC4)nc3c2)cc1)Nc1ccc(C(F)(F)F)cc1 [Compound C083, 1-(4-((3-morpholinoquinoxalin-6-yl)oxy)phenyl)-3-(4-(trifluoromethyl)phenyl)urea]	> 5	70 to 89	70 to 89	–	–	–
O=C(Nc1ccc(Cl)cc1)Nc1ccc(Oc2ccc3ncc(N4CCOCC4)nc3c2)cc1 [Compound C085, 1-(4-chlorophenyl)-3-(4-((3-morpholinoquinoxalin-6-yl)oxy)phenyl)urea]	–	70 to 89	–	–	–	–
O=C(Nc1ccc(Oc2ccc3nccnc3c2)cc1F)c1cncc(C(F)(F)F)c1 [Compound C099, N-(2-fluoro-4-(quinoxalin-6-yloxy)phenyl)-5-(trifluoromethyl)nicotinamide]	> 5	< 70	–	–	–	–
O=C(Nc1ccc(Oc2ccc3nccnc3c2)cc1F)c1ccnc(C(F)(F)F)c1 [Compound C100, N-(2-fluoro-4-(quinoxalin-6-yloxy)phenyl)-2-(trifluoromethyl)isonicotinamide]	> 5	< 70	–	–	–	–
O=C(Nc1cccc(Cl)c1)Nc1ccc(Oc2ccc3nccnc3c2)c(F)c1 [Compound C101, 1-(3-chlorophenyl)-3-(3-fluoro-4-(quinoxalin-6-yloxy)phenyl)urea]	< 1	70 to 89	–	–	–	–
O=C(Nc1ccc(Cl)cc1)Nc1ccc(Oc2ccc3nccnc3c2)c(F)c1 [Compound C102, 1-(4-chlorophenyl)-3-(3-fluoro-4-(quinoxalin-6-yloxy)phenyl)urea]	–	70 to 89	–	–	–	–
O=C(Nc1ccc(Oc2ccc3ncc(O)nc3c2)cc1)Nc1ccc(Cl)c(C(F)(F)F)c1 [Compound C103, 1-(4-chloro-3-(trifluoromethyl)phenyl)-3-(4-((3-hydroxyquinoxalin-6-yl)oxy)phenyl)urea]	–	–	–	> 5	–	–
